Results: patent US20110288082A1, “METHODS AND COMPOSITIONS FOR INHIBITION OF THE TRANSITIONAL ENDOPLASMIC RETICULUM ATPASE” (priority 2010, published 2011)
Values joined by “and” are separate entries in the source; they are usually repeats but may differ in a detail not shown here. Equal entries are not always repeated. Where two headings read alike, the source gives them in different places.

Columns and labels:
p97 = p97 (Homo sapiens, UniProt P55072); assay: p97 ATPase assay (Kinase Glo Plus; biomol green for compounds that interfere with luciferase); format: biochemical
Experimental: Assay Buffer (20 μL of 2.5× concentration, where 1×=50 mM Tris pH 7.4, 20 mM MgCl2, 1 mM EDTA, 0.5 mM TCEP) was dispensed into each well of a 96 well plate. Purified p97 (25 μL of 50 μM) was diluted in 975 μL, of 1× Assay Buffer and 10 μL was dispensed in each well. Test compound (10 μL) or 5% DMSO (10 μL) was then added to each well and the plate was incubated at room temperature for 10 min. The ATPase assay was carried out by adding to each well 10 μL of 500 μM ATP (pH 7.5), incubating at room temperature for 60 min, and then adding 50 μL Kinase Glo Plus reagent (Promega) followed by a final 10 min incubation at room temperature in the dark. Luminescence was read on an Analyst AD (Molecular Devices). Compounds were assayed at a range of concentrations (0, 0.048, 0.24, 1.2, 6, 30 μM) in triplicate. The percent of remaining activity for each reaction was calculated using the following mathematical expression: ((Test Compound-High Control)/(Low Control-High Control))*100. Test_Compound is defined as wells containing test compound, Low_Control is defined as wells containing DMSO, High_Control is defined as wells containing no p97 protein. […] The result was expressed as mean +/− standard error. For assays with Myriad 12 and 19, 100 μL of biomol green reagent (Enzo Life Sciences) was added to each well instead of kinase Glo Plus (Promega) and absorbance at 630 nm was measured. This was done because these compounds interfered with luciferase activity. […]

[1] = tested on: p97-dependent Ub^G76V-GFP degradation in HeLa cells; assay: Ub^G76V-GFP degradation (turn-over) assay; format: cell-based, human
Experimental: Ub^G76V-GFP Degradation Assay
Two GFP images with 100 ms exposure time per well were acquired and the average GFP intensity per area of a HeLa cell was determined by using MetaXpress software. Mean GFP intensity of 300-500 cells was calculated using Excel. Normalized GFP intensity was calculated using the following formula: (Test compound−Background)/(Basal GFP intensity—Background). Where: Test compound is defined as Mean GFP intensity of Ub^G76V-GFP-expressing cells treated with the test compound. Background is defined as background GFP intensity of HeLa cells. Basal GFP intensity is defined as mean GFP intensity of Ub^G76V-GFP-expressing cells treated with DMSO. […] The percent of remaining k for each compound is calculated using the following formula: (Test compound/DMSO control)*100. Where: Test_compound is defined as k determined from wells containing test compound, DMSO control is defined as k determined from wells containing DMSO.

[2] = purified p97, ATP, 60 min room temperature, mean +/- standard error
[3] = Homo sapiens, HeLa, read-out: IC50 (μM) Ub^G76V-GFP turn over, Ub^G76V-GFP-expressing HeLa cells, degradation rate constant k from 90 to 180 min, mean +/- standard error
[4] = Homo sapiens, HeLa, read-out: IC50 (μM) Ub^G76V-GFP turn over, p97-dependent Ub^G76V-GFP degradation turn-over assay

p97, sequence (P55072 2-806 limits assumed): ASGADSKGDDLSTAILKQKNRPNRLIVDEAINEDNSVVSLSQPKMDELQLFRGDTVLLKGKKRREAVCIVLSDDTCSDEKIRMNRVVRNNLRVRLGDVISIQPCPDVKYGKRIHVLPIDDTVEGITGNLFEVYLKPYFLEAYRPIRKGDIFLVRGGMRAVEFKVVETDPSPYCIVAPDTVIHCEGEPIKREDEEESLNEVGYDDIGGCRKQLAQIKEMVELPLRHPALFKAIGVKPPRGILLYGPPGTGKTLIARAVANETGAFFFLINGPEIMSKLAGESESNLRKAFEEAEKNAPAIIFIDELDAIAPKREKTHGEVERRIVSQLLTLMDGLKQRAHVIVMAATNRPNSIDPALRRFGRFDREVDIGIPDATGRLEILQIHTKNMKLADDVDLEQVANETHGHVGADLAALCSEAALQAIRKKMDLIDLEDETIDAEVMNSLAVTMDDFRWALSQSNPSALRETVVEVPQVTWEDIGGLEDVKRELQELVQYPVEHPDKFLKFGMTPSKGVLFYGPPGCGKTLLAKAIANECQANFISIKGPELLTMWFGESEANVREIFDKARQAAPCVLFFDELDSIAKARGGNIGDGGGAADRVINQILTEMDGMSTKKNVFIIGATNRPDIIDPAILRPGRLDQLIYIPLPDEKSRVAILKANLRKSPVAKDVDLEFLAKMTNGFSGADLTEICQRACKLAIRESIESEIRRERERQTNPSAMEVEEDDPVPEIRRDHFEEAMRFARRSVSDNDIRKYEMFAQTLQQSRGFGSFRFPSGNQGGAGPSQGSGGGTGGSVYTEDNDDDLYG

| SMILES | IC50 [1, 3] [µM] | IC50 [1, 4] [µM] | also measured |
| --- | --- | --- | --- |
| Fc1ccc(Nc2nc(NCc3ccccc3)c3ccccc3n2)cc1 [II-4] | 9.4 ± 1 | – | IC50 (p97; [2]): 3.8 ± 1.2 µM |
| Brc1ccc(Nc2nc(NCc3ccccc3)c3ccccc3n2)cc1 [II-5] | 6 ± 0.8 | – | IC50 (p97; [2]): 1.8 ± 0.4 µM |
| COc1ccc(Nc2nc(NCc3ccccc3)c3ccccc3n2)cc1 [II-6] | 4.5 ± 1.1 | – | IC50 (p97; [2]): 3.8 µM and 3.5 µM; IC50 ([1]; read-out: IC50 (μM) Ub^G76V-GFP turn over, Ub^G76V-GFP-expressing HeLa cells, degradation rate constant k from 90 to 180 min, mean +/- standard error): 4.8 ± 0.7 µM |
| Cc1ccccc1Nc1nc(NCc2ccccc2)c2ccccc2n1 [II-7] | 10 ± 2 | – | IC50 (p97; [2]): 3.4 ± 1.5 µM |
| Clc1ccccc1Nc1nc(NCc2ccccc2)c2ccccc2n1 [II-8] | – | 13 ± 2 | IC50 (p97; p97 ATPase assay): 69 ± 25 µM |
| Fc1ccccc1Nc1nc(NCc2ccccc2)c2ccccc2n1 [II-9] | 10 ± 2 | – | IC50 (p97; [2]): 0.85 ± 0.17 µM |
| Brc1ccccc1Nc1nc(NCc2ccccc2)c2ccccc2n1 [II-10] | – | 13 ± 2 | IC50 (p97; p97 ATPase assay): 64 ± 24 µM |
| Clc1cccc(Nc2nc(NCc3ccccc3)c3ccccc3n2)c1 [II-13] | 7.8 ± 1.3 | – | – |
| Fc1cccc(Nc2nc(NCc3ccccc3)c3ccccc3n2)c1 [II-14] | 2.7 ± 0.4 | – | – |
| Cc1ccc(CNc2nc(NCc3ccccc3)c3ccccc3n2)cc1 [IV-1] | 1.5 ± 0.4 | – | – |
| Fc1cccc(CNc2nc(NCc3ccccc3)c3ccccc3n2)c1 [IV-13] | 2.8 ± 0.4 | – | – |
| Brc1cccc(CNc2nc(NCc3ccccc3)c3ccccc3n2)c1 [IV-14] | 2.8 ± 0.4 | – | – |
| COc1cccc(CNc2nc(NCc3ccccc3)c3ccccc3n2)c1 [IV-15] | 2.5 ± 0.8 | – | – |
| FC(F)(F)c1ccc(CNc2nc(NCc3ccccc3)c3ccccc3n2)cc1 [IV-16] | 2.3 ± 0.3 | – | – |
| COc1cccc2c(NCc3ccccc3)nc(NCc3cccs3)nc12 [XI-14] | 1.8 ± 0.3 | – | – |
| COc1cccc2c(NCc3ccccc3)nc(Nc3cccc(Cl)c3)nc12 [XI-16] | 5.4 ± 1 | – | – |
| COc1cccc2c(NCc3ccccc3)nc(Nc3cccc(F)c3)nc12 [XI-17] | 4.8 ± 0.7 | – | – |
| COc1cccc2c(NCc3ccccn3)nc(N3CCNc4ccccc43)nc12 [XLIII] | – | 16 ± 2 | – |

| SMILES | IC50 [1, 3] [µM] | IC50 [1, 4] [µM] | also measured |
| --- | --- | --- | --- |
| c1ccc(CNc2nc(N3CCOCC3)nc3ccccc23)cc1 [XLIV] | – | 36 ± 9 | – |
| N#CC(C(=O)COC(=O)CNc1ccc(C(F)(F)F)cc1[N+](=O)[O-])=C1Nc2ccccc2N1 [XLI] | – | 6.5 ± 0.8 | – |
| N#CC(C(=O)COC(=O)C1COc2ccccc2O1)=C1Nc2ccccc2N1 (centres unmarked) [XL] | – | 10 ± 1.4 | – |
| c1ccc(CNc2nc(N3CCCCC3)nc3ccccc23)cc1 [XXII] | – | 7.3 ± 2 | – |
| CCc1ccc(Nc2nc(N)nc(CCl)n2)cc1 [XXIX] | – | 18 ± 3 | – |
| Nc1nc(CCl)nc(N2CCCc3ccccc32)n1 [XXVIII] | – | 17 ± 3 | – |
| Nc1nc(Nc2cccc(Cl)c2)nc(C(Cl)Cl)n1 [XXVII] | – | 13 ± 3 | – |
| Nc1nc(CCl)nc(N2CCc3ccccc32)n1 [XXVI] | – | 10.4 ± 1.5 | – |
| N#CC(C(=O)COC(=O)c1ccccc1Cc1ccccc1)=C1Nc2ccccc2N1 [XXXIII] | – | 3.4 ± 0.6 | – |
| N#CC(C(=O)COC(=O)COc1ccc(Cl)cc1)=C1Nc2ccccc2N1 [XXXII] | – | 2.6 ± 0.2 | – |
| N#CC(C(=O)COC(=O)COc1cccc(Br)c1)=C1Nc2ccccc2N1 [XXXIV] | – | 5.9 ± 0.8 | – |
| N#CC(C(=O)COC(=O)CCC(=O)c1ccc2c(c1)OCCO2)=C1Nc2ccccc2N1 [XXXIX] | – | 6.3 ± 0.6 | – |
| Nc1nc(CCl)nc(Nc2ccc(Cl)cc2)n1 [XXXI] | – | 8 ± 2 | – |
| Cc1cc(OCC(=O)OCC(=O)C(C#N)=C2Nc3ccccc3N2)ccc1Cl [XXXVIII] | – | 16 ± 1.4 | – |
| Cc1cc(C)cc(OCC(=O)OCC(=O)C(C#N)=C2Nc3ccccc3N2)c1 [XXXVII] | – | 13 ± 1.4 | – |
| Cc1cccc(C)c1OCC(=O)OCC(=O)C(C#N)=C1Nc2ccccc2N1 [XXXVI] | – | 15 ± 2 | – |
| CCCOc1ccc(C(=O)CCC(=O)OCC(=O)C(C#N)=C2Nc3ccccc3N2)cc1 [XXXV] | – | 6.1 ± 0.6 | – |
| Nc1nc(CCl)nc(Nc2cccc3ccccc23)n1 [XXX] | – | 14 ± 3 | – |
